Experimental data published in the NIST ThermoML archive (doi:10.1016/j.jct.2006.09.006).
Numbers after ± are expanded uncertainties. Blank lines part the entries; values can stand above or below the molecule they belong to.

Key:
[1] = 298.15 K; 101.33 kPa; Liquid
[2] = xn = mol fraction of the nth substance listed; conditions: 298.15 K, 101.3 kPa, Liquid

SMILES: OCC(F)(F)F [2,2,2-trifluoroethanol]
- mass density [1]: 1382.4 ± 1.5 kg/m3

SMILES: OCC(F)(F)F [2,2,2-trifluoroethanol] + CC(C)OC(C)C
- mass density ([2]; x2 = 0.0511): 1320 ± 1 kg/m3
- mass density ([2]; x2 = 0.1069): 1258.5 ± 0.9 kg/m3
- mass density ([2]; x2 = 0.1922): 1175.7 ± 0.7 kg/m3
- mass density ([2]; x2 = 0.2483): 1127.3 ± 0.6 kg/m3
- mass density ([2]; x2 = 0.2968): 1088.9 ± 0.5 kg/m3
- mass density ([2]; x2 = 0.4021): 1013.8 ± 0.4 kg/m3
- mass density ([2]; x2 = 0.4927): 957.1 ± 0.5 kg/m3
- mass density ([2]; x2 = 0.6059): 894 ± 0.5 kg/m3
- mass density ([2]; x2 = 0.6997): 846.9 ± 0.5 kg/m3
- mass density ([2]; x2 = 0.8024): 799.8 ± 0.6 kg/m3
- mass density ([2]; x2 = 0.9113): 754.2 ± 0.6 kg/m3

SMILES: FC(F)(F)c1ccccc1 [(trifluoromethyl)benzene]
- mass density [1]: 1182.18 ± 0.48 kg/m3

SMILES: FC(F)(F)c1ccccc1 [(trifluoromethyl)benzene] + CCO
- mass density ([2]; x1 = 0.1051): 864 ± 0.4 kg/m3
- mass density ([2]; x1 = 0.1999): 921.7 ± 0.3 kg/m3
- mass density ([2]; x1 = 0.2454): 945.8 ± 0.3 kg/m3
- mass density ([2]; x1 = 0.3059): 975.2 ± 0.2 kg/m3
- mass density ([2]; x1 = 0.4057): 1017.5 ± 0.2 kg/m3
- mass density ([2]; x1 = 0.5022): 1052.8 ± 0.3 kg/m3
- mass density ([2]; x1 = 0.5855): 1079.7 ± 0.3 kg/m3
- mass density ([2]; x1 = 0.7052): 1113.7 ± 0.4 kg/m3
- mass density ([2]; x1 = 0.7886): 1134.9 ± 0.4 kg/m3
- mass density ([2]; x1 = 0.9032): 1161.5 ± 0.4 kg/m3

SMILES: CC(C)OC(C)C [diisopropyl ether]
- mass density [1]: 719.17 ± 0.96 kg/m3

Continued, values first:

- mass density ([2]; x1 = 0.1072): 774.5 ± 0.5 kg/m3
- mass density ([2]; x1 = 0.2007): 766.1 ± 0.5 kg/m3
- mass density ([2]; x1 = 0.3086): 757.6 ± 0.5 kg/m3
- mass density ([2]; x1 = 0.403): 751 ± 0.5 kg/m3
- mass density ([2]; x1 = 0.4811): 746 ± 0.6 kg/m3
- mass density ([2]; x1 = 0.6142): 738.3 ± 0.6 kg/m3
- mass density ([2]; x1 = 0.6993): 733.8 ± 0.6 kg/m3
- mass density ([2]; x1 = 0.7432): 731.7 ± 0.6 kg/m3
- mass density ([2]; x1 = 0.7863): 729.6 ± 0.6 kg/m3
- mass density ([2]; x1 = 0.8965): 724.4 ± 0.6 kg/m3
- mass density ([2]; x1 = 0.9129): 723.6 ± 0.6 kg/m3
SMILES: CC(C)OC(C)C [diisopropyl ether] + CCO

- mass density [1]: 785.6 ± 0.24 kg/m3
SMILES: CCO [ethanol]
